According to patent US20250026723A1, “Cannabinoid Receptor Modulating Compounds” (THE UNITED STATES OF AMERICA, as represented by the …, priority 2021, published 2025):
Read-outs that look alike come from different tables or passages of the source.

Key:
[1] = biological target: cannabinoid receptor 1 (CB1R) (Homo sapiens (Human), UniProt P21554); experiment: CB1R binding affinity (inhibition constant Ki)
CB1 [2] = biological target: T1, CB1 (Homo sapiens (Human), UniProt P21554); experiment: CB1 antagonism assay, red (cAMP) NOMAD biosensor, MPXNomad-CB1 HEK293 cells; assay type: cell-based
Experimental: (§1) CB1 antagonism assays were conducted on red (cAMP) and green ([…]) NOMAD biosensors using MPXNomad-CB1 HEK293 cells using commercial kits and protocols provided by Innoprot (Derio, Spain).
Target sequence in this assay (P21554 whole entry): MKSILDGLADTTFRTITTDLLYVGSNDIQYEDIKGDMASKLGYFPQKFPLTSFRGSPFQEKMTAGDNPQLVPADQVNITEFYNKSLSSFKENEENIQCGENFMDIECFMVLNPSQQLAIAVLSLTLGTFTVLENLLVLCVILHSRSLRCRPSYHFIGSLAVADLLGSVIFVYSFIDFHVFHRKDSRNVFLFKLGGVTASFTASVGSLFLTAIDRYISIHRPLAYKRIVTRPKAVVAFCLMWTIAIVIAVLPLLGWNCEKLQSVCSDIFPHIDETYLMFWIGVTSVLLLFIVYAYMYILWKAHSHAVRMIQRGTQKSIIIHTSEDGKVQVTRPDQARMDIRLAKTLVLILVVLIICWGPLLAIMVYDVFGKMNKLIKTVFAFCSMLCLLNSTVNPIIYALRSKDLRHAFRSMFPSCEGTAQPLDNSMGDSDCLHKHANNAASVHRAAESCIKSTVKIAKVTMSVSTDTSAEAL

CB1 [3] = biological target: T1, CB1; experiment: CB1 antagonism assay, green (β-Arrestin) NOMAD biosensor, MPXNomad-CB1 HEK293 cells; assay type: cell-based
Experimental: as §1
Target sequence in this assay (P21554 whole entry): as above

in vitro = details: human, Caco-2
[4] = Caco-2 permeability assay; details: human, Caco-2
Caco-2 = Caco-2 permeability assay; details: Caco-2, assay conc 10 μM
CB1 [5] = biological target: T1, CB1; experiment: Cannabinoid receptor modulator activity (Table 3, in words)
Target sequence in this assay (P21554 whole entry, species assumed): as the sequence (P21554 whole entry) above

Work on `COC(=O)[C@@H](C)CS/C(=N\S(=O)(=O)c1ccc(C(F)(F)F)cc1)N1CC(c2ccccc2)C(c2ccc(Cl)cc2)=N1` (stereo partly shown) [Compound 3A] yielded a Ki [1] of 7.7 nM, an IC50 (CB1 [2]) of 0.61 nM and an IC50 (CB1 [3]) of 0.04 nM. It also gave a Papp A→B at 10 μM (in vitro) of 0.096 nm/s, a Papp B→A at 10 μM (in vitro) of 0.121 nm/s and an efflux ratio at 10 μM [4] of 1.26.
In the case of `COCCSC(=NS(=O)(=O)c1ccc(C(F)(F)F)cc1)N1CC(c2ccccc2)C(c2ccc(Cl)cc2)=N1` (stereo not shown) [Compound 1], the Ki ([1]; read-out: CB1R Ki) is reported as 6.9 nM.
For `COC(=O)C(C)C[Se]C(=NS(=O)(=O)c1ccc(Cl)cc1)N1CC(c2ccccc2)C(c2ccc(Cl)cc2)=N1` (stereo not shown) [Compound 23], the Ki ([1]; read-out: CB1R Ki) was 12.1 nM.
With `NC(=O)C[Se]C(=NS(=O)(=O)c1ccc(C(F)(F)F)cc1)N1CC(c2ccccc2)C(c2ccc(Cl)cc2)=N1` (stereo not shown) [Compound 20] the Ki ([1]; read-out: CB1R Ki) was 14.4 nM, the “Mean (B-A/A-B) Efflux Ratio” value (Caco-2) was 0.25 and the “Mean Papp A-B” value (Caco-2) was 0.183 10^−6 cm/s. For the same compound, the “Mean Papp B-A” value (Caco-2) was 0.0451 10^−6 cm/s.
For `NC(=O)CSC(=NS(=O)(=O)c1ccc(C(F)(F)F)cc1)N1CC(c2ccccc2)C(c2ccc(Cl)cc2)=N1` (stereo not shown) [Compound 3], the Ki ([1]; read-out: CB1R Ki) was 21.2 nM.
With `O=C(CCS/C(=N\S(=O)(=O)c1ccc(C(F)(F)F)cc1)N1CC(c2ccccc2)C(c2ccc(Cl)cc2)=N1)NO` (stereo not shown) [Compound 3B] the “Activity at CB1 (in words)” value (CB1 [5]) was “antagonist, potential”.
Compound `CSC(=NS(=O)(=O)c1ccc(C(F)(F)F)cc1)N1CC(c2ccccc2)C(c2ccc(Cl)cc2)=N1` (stereo not shown) [Compound 19] has a Ki ([1]; read-out: CB1R Ki) of 16.6 nM.
For `C[Se]C(=NS(=O)(=O)c1ccc(C(F)(F)F)cc1)N1CC(c2ccccc2)C(c2ccc(Cl)cc2)=N1` (stereo not shown) [Compound 12], the Ki ([1]; read-out: CB1R Ki) was 3.3 nM.
With `N#CCCCSC(=NS(=O)(=O)c1ccc(C(F)(F)F)cc1)N1CC(c2ccccc2)C(c2ccc(Cl)cc2)=N1` (stereo not shown) [Compound 2] the Ki ([1]; read-out: CB1R Ki) was 3.4 nM, the IC50 (CB1 [2]; MPXNomad-CB1 HEK293 cells, CB1 antagonism, read-out: cAMP IC50) was 2490 nM and the IC50 (CB1 [3]; MPXNomad-CB1 HEK293 cells, CB1 antagonism, read-out: β-Arrestin IC50) was 1800 nM. The “Mean (B-A/A-B) Efflux Ratio” value (Caco-2) was 2.09, the “Mean Papp A-B” value (Caco-2) was 0.00561 10^−6 cm/s and the “Mean Papp B-A” value (Caco-2) was 0.0118 10^−6 cm/s.
